Where a name gives a salt, the structure may show the parent alone.
Compound `[O-][n+]1nc(NCCN2CCCOCC2)nc2cc3c(cc21)CCC3` [Compound 48, N-[2-(1,4-Oxazepan-4-yl)ethyl]-7,8-dihydro-6H-indeno[5,6-e][1,2,4]triazin-3-amine 1-Oxide] has a melting point of 119 to 120 °C.
`CC1Cc2cc3nc(NCCN(C)C)n[n+]([O-])c3cc2C1` (stereo not drawn) [Compound 96, N^1,N^1-Dimethyl-N^2-(7-methyl-1 oxido-7,8-dihydro-6H-indeno[5,6-e][1,2,4]triazin-3-yl)-1,2-ethanediamine] showed a melting point of 119 to 121 °C.
With `Nc1nc2ccc3c(c2[n+]([O-])n1)CCCO3` [Compound 234, 9,10-Dihydro-8H-chromeno[6,5-e][1,2,4]triazin-3-amine 1-Oxide] the melting point was 275 to 279 °C (dec.).
Compound `COCCN(C)CCNc1nc2cc3c(cc2[n+]([O-])n1)CCC3` [Compound 30, N^1-(1-Oxido-7,8-dihydro-6H-indeno[5,6-e][1,2,4]triazin-3-yl)-N^2-(2-methoxyethyl)-N^2-methyl-1,2-ethanediamine] has a melting point of 107 to 110 °C.
Compound `CC(C)(C)OP(=O)(OCCCc1n[n+]([O-])c2cc3c(cc2[n+]1[O-])CCC3)OC(C)(C)C` [Compound 73, 3-(3-(Di-tert-butoxyphosphoryloxy)propyl)-7,8-dihydro-6H-indeno[5,6-e][1,2,4]triazine 1,4-Dioxide] has a melting point of 129 to 131 °C.
With `CN(C)CCNc1nc2cc3c(cc2[n+]([O-])n1)CCCC3` [Compound 177, N^1-(1-Oxido-6,7,8,9-tetrahydronaphtho[2,3-e][1,2,4]triazin-3-yl)-N^2,N^2-dimethyl-1,2-ethanediamine] the melting point was 149 to 151 °C.
With `[O-][n+]1nc(NCCCCN2CCOCC2)nc2cc3c(cc21)CCC3` [Compound 62, N-[4-(4-Morpholinyl)butyl]-7,8-dihydro-6H-indeno[5,6-e][1,2,4]triazin-3-amine 1-Oxide] the melting point was 151 to 152 °C.
Compound `[O-][n+]1nc(NCCCN2CCOCC2)nc2cc3c(cc21)OCCC3` [Compound 243, N-[3-(4-Morpholinyl)propyl]-7,8-dihydro-6H-chromeno[6,7-e][1,2,4]triazin-3-amine 1-Oxide] has a melting point of 151 to 152 °C.
With `CN(C)CCNc1nc2cc3c(cc2[n+]([O-])n1)CCCCC3` [Compound 188, N^1,N^1-Dimethyl-N^2-(1-oxido-7,8,9,10-tetrahydro-6H-cyclohepta[g][1,2,4]benzotriazin-3-yl)-1,2-ethanediamine] the melting point was 149 to 152 °C.
For `CN(C)CCNc1nc2cc3c(cc2[n+]([O-])n1)OCO3` [Compound 223, N^1,N^1-Dimethyl-N^2-(1-oxido[1,3]dioxolo[4,5-g][1,2,4]benzotriazin-3-yl)-1,2-ethanediamine], the melting point was 192 to 194 °C.
With `Nc1nc2cc3c(cc2[n+]([O-])n1)CCO3` [Compound 204, 7,8-Dihydrofuro[2,3-g][1,2,4]benzotriazin-3-amine 1-Oxide] the melting point was 293 to 296 °C.
For `CCN1Cc2cc3nc(N)n[n+]([O-])c3cc2C1` [Compound 249, 7-Ethyl-7,8-dihydro-6H-[1,2,4]triazino[5,6-f]isoindol-3-amine 1-Oxide], the melting point was 218 °C.
Work on `[O-][n+]1nc(NCCN2CCOCC2)nc2cc3c(cc21)CCC3` [Compound 44, N-[2-(4-Morpholinyl)ethyl]-7,8-dihydro-6H-indeno[5,6-e][1,2,4]triazin-3-amine 1-Oxide] yielded a melting point of 178 to 179 °C.
For `Nc1nc2cc3c(cc2[n+]([O-])n1)OCCC3` [Compound 239, 7,8-Dihydro-6H-chromeno[6,7-e][1,2,4]triazin-3-amine 1-Oxide], the melting point was 280 to 283 °C.
Work on `[O-][n+]1nc(I)nc2cc3c(cc21)CCO3` [Compound 213, 3-Iodo-7,8-dihydrobenzofuro[6,5-e][1,2,4]triazine 1-Oxide] yielded a melting point of 192 to 194 °C.
Compound `Nc1nc2ccc3c(c2[n+]([O-])n1)CCC3` [Compound 4, 8,9-Dihydro-7H-indeno[5,4-e][1,2,4]triazin-3-amine 1-Oxide] has a melting point of 270 to 274 °C.
`COC1CCCN(CCNc2nc3cc4c(cc3[n+]([O-])n2)CCC4)C1` (stereo not drawn) [Compound 40, N-[2-(3-Methoxy-1-piperidinyl)ethyl]-7,8-dihydro-6H-indeno[5,6-e][1,2,4]triazin-3-amine 1-Oxide] showed a melting point of 123 to 124 °C.
Compound `CCc1n[n+]([O-])c2c3c(ccc2[n+]1[O-])CCN(C)C3` [Compound 265, 3-Ethyl-9-methyl-7,8,9,10-tetrahydro[1,2,4]triazino[5,6-h]isoquinoline 1,4-Dioxide] has a melting point of 117 to 121 °C.
Compound `[O-][n+]1nc(NCCN2CCCCC2)nc2cc3c(cc21)CCC3` [Compound 36, N-[2-(1-Piperidinyl)ethyl]-7,8-dihydro-6H-indeno[5,6-e][1,2,4]triazin-3-amine 1-Oxide] has a melting point of 151 to 153 °C.
`C=CCc1nc2cc3c(cc2[n+]([O-])n1)CCC3` [Compound 69, 3-Allyl-7,8-dihydro-6H-indeno[5,6-e][1,2,4]triazine 1-Oxide] showed a melting point of 60 to 61 °C.
In the case of `Nc1nc2cc3c(cc2[n+]([O-])n1)CCCCC3` [Compound 186, 7,8,9,10-Tetrahydro-6H-cyclohepta[g][1,2,4]benzotriazin-3-amine 1-Oxide], the melting point is reported as 261 to 265 °C.
`COC1CN(CCCNc2nc3cc4c(cc3[n+]([O-])n2)CCC4)C1` [Compound 54, N-[3-(3-Methoxy-1-azetidinyl)propyl]-7,8-dihydro-6H-indeno[5,6-e][1,2,4]triazin-3-amine 1-Oxide] showed a melting point of 101 to 102 °C.
`CCN(CC)CCNc1nc2ccc3c(c2[n+]([O-])n1)CCC3` [Compound 8, N^1,N^1-Diethyl-N^2-(1-oxido-8,9-dihydro-7H-indeno[5,4-e][1,2,4]triazin-3-yl)-1,2-ethanediamine] gave a melting point of 126 to 130 °C.
Work on `CN(C)C1Cc2cc3nc(N)n[n+]([O-])c3cc2C1` (stereo not drawn) [Compound 111, N^7,N^7-Dimethyl-7,8-dihydro-6H-indeno[5,6-e][1,2,4]triazine-3,7-diamine 1-Oxide] yielded a melting point of 212 to 216 °C.
For `CCc1nc2cc3c(cc2[n+]([O-])n1)CC(CO[Si](C)(C)C(C)(C)C)C3` (stereo not drawn), the melting point was 63 to 65 °C.
Compound `[O-][n+]1ncnc2cc3c(cc21)CCC3` [Compound 64, 7,8-Dihydro-6H-indeno[5,6-e][1,2,4]triazine 1-Oxide] has a melting point of 130 to 131 °C.
Compound `[O-][n+]1nc(NCCCN2CCOCC2)nc2cc3c(cc21)OCC3` [Compound 199, N-[3-(4-Morpholinyl)propyl]-6,7-dihydrofuro[3,2-g][1,2,4]benzotriazin-3-amine 1-Oxide] has a melting point of 142 to 144 °C.
`[O-][n+]1nc(I)nc2cc3c(cc21)CC(CCOC1CCCCO1)C3` (stereo not drawn) [Compound 159, 3-Iodo-7-(2-(tetrahydro-2H-pyran-2-yloxy)ethyl)-7,8-dihydro-6H-indeno[5,6-e][1,2,4]triazine 1-Oxide] gave a melting point of 80 to 82 °C.
With `CN(C)CCNc1nc2cc3c(cc2[n+]([O-])n1)CCO3` [Compound 207, N^1,N^1-Dimethyl-N^2-(1-oxido-7,8-dihydrofuro[2,3-g][1,2,4]benzotriazin-3-yl)-1,2-ethanediamine] the melting point was 163 to 165 °C.
For `CC1CCCC(C)N1CCNc1nc2cc3c(cc2[n+]([O-])n1)CCC3` (stereo not drawn) [Compound 38, N-[2-(2,6-Dimethyl-1-piperidinyl)ethyl]-7,8-dihydro-6H-indeno[5,6-e][1,2,4]triazin-3-amine 1-Oxide], the melting point was 173 to 175 °C.
`[O-][n+]1nc(I)nc2cc3c(cc21)CC(CCO)C3` (stereo not drawn) [Compound 158, 2-(3-Iodo-1-oxido-7,8-dihydro-6H-indeno[5,6-e][1,2,4]triazin-7-yl)ethanol] showed a melting point of 96 to 99 °C.
Work on `[O-][n+]1nc(NCCCN2CCOCC2)nc2cc3c(cc21)CCO3` [Compound 211, N-[3-(4-Morpholinyl)propyl]-7,8-dihydrofuro[2,3-g][1,2,4]benzotriazin-3-amine 1-Oxide] yielded a melting point of 152 to 154 °C.
Work on `[O-][n+]1nc(CCCN2CCOCC2)nc2cc3c(cc21)CC(CO)C3` (stereo not drawn) (as salt: hydrochloride) [Compound 140, {3-[3-(4-Morpholinyl)propyl]-1-oxido-7,8-dihydro-6H-indeno[5,6-e][1,2,4]triazin-7-yl}methanol] yielded a melting point of 210 to 212 °C.
`CCN(CC)CCNc1nc2cc3c(cc2[n+]([O-])n1)CCC3` [Compound 26, N^1-(1-Oxido-7,8-dihydro-6H-indeno[5,6-e][1,2,4]triazin-3-yl)-N^2,N^2-diethyl-1,2-ethanediamine] showed a melting point of 109 to 112 °C.
Compound `CC1Cc2cc3nc(N)n[n+]([O-])c3cc2C1` (stereo not drawn) [Compound 94, 7-Methyl-7,8-dihydro-6H-indeno[5,6-e][1,2,4]triazin-3-amine 1-Oxide] has a melting point of 275 to 277 °C.
`C=CCc1nc2cc3c(cc2[n+]([O-])n1)CC(CO[Si](C)(C)C(C)(C)C)C3` (stereo not drawn) showed a melting point of 49 to 52 °C.
For `[O-][n+]1nc(NCCO)nc2cc3c(cc21)CCC3` [Compound 24, 2-[(1-Oxido-7,8-dihydro-6H-indeno[5,6-e][1,2,4]triazin-3-yl)amino]ethanol], the melting point was 222 to 224 °C.
`Nc1nc2cc3c(cc2[n+]([O-])n1)CC(CCO)C3` (stereo not drawn) [Compound 157, 2-(3-Amino-1-oxido-7,8-dihydro-6H-indeno[5,6-e][1,2,4]triazin-7-yl)ethanol] showed a melting point of 230 to 235 °C.
In the case of `O=CCCc1nc2cc3c(cc2[n+]([O-])n1)CCO3` [Compound 214, 3-(1-Oxido-7,8-dihydrofuro[2,3-g][1,2,4]benzotriazin-3-yl)propanal], the melting point is reported as 140 to 142 °C.
Work on `N#CC1CCN(CCCNc2nc3cc4c(cc3[n+]([O-])n2)CCC4)C1` (stereo not drawn) [Compound 56, 1-{3-[(1-Oxido-7,8-dihydro-6H-indeno[5,6-e][1,2,4]triazin-3-yl)amino]propyl}-3-pyrrolidinecarbonitrile] yielded a melting point of 111 to 112 °C.
In the case of `CC(C)(C)[Si](C)(C)OCC1Cc2cc3nc(N)n[n+]([O-])c3cc2C1` (stereo not drawn), the melting point is reported as 169 to 171 °C.
Work on `COC1CN(CCNc2nc3cc4c(cc3[n+]([O-])n2)CCC4)C1` [Compound 34, N-[2-(3-Methoxy-1-azetidinyl)ethyl]-7,8-dihydro-6H-indeno[5,6-e][1,2,4]triazin-3-amine 1-Oxide] yielded a melting point of 139 to 141 °C.

Reference: patent US7989451B2, “Tricyclic 1,2,4-triazine oxides and compositions for therapeutic use in cancer treatments” (Auckland Uniservices Limited, priority 2005, dated 2011)
